Patent US20250235460A1, “COMBINATION THERAPY USING GLUCOSE-DEPENDENT INSULINOTROPIC POLYPEPTIDE RECEPTOR ANTAGONIST COMPOUNDS AND GLP-1 RECEPTOR AGONIST COMPOUNDS” (Pfizer Inc., priority 2024, published 2025)
pEC50: −log10 of the molar value.

Molecular target: human GLP-1R (Homo sapiens, UniProt P43220, G168S)
Assay: CHO GLP-1R Clone H6 cAMP HTRF agonist assay (Assay 1, high receptor density)
Type: cell-based
Conditions: for pEC50: CHO GLP-1R clone H6, cAMP HTRF, geometric mean; for Emax: CHO GLP-1R clone H6, arithmetic mean, relative to saturating GLP-1 (1 μM), read-out: Assay 1 Emax (%)
Text: In Table 5 and Table 6, assay data are presented to two (2) significant figures as the geometric mean (EC50s) and arithmetic mean (Emax) based on the number of replicates listed (Number). A blank cell means there was no data for that Example or the Emax was not calculated.

Chain of human GLP-1R (P43220 24-463 G168S): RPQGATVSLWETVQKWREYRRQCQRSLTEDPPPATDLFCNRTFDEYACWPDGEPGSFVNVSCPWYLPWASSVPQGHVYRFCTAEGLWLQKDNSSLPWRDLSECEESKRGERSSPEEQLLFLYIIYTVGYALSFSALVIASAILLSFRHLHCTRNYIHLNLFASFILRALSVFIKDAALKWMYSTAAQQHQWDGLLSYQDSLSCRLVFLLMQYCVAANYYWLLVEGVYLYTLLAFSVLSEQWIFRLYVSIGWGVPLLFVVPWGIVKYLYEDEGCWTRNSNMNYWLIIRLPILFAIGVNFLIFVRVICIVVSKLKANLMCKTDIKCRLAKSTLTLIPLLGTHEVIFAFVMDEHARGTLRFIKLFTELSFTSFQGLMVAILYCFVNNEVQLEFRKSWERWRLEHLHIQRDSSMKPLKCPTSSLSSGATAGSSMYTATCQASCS

Structure (SMILES)	pEC50	Emax
Cn1c(CN2CCC(c3cccc(OCc4c(F)cccc4F)n3)CC2)nc2ccc(C(=O)O)cc21 [Compound 224B, 2-[(4-{6-[(2,6-difluorobenzyl)oxy]pyridin-2-yl}piperidin-1-yl)methyl]-1-methyl-1H-benzimidazole-6-carboxylic acid]	5.92	53%
Cn1cnc(CCn2c(CN3CCC(c4cccc(OCc5ccc(Cl)cc5F)n4)CC3)nc3ccc(C(=O)O)cc32)c1 [Compound 276B, 2-[(4-{6-[(4-chloro-2-fluorobenzyl)oxy]pyridin-2-yl}piperidin-1-yl)methyl]-1-[2-(1-methyl-1H-imidazol-4-yl)ethyl]-1H-benzimidazole-6-carboxylic acid]	< 4.70	–
O=C(O)c1ccc2nc(CN3CCC(c4cccc(OCc5ccc(Cl)cc5F)n4)CC3)n([C@@H]3CCOC3)c2c1 [Compound 268B, 2-[(4-{6-[(4-chloro-2-fluorobenzyl)oxy]pyridin-2-yl}piperidin-1-yl)methyl]-1-[(3R)-tetrahydrofuran-3-yl]-1H-benzimidazole-6-carboxylic acid]	< 4.70	–
COCCn1c(CN2CCN(c3cccc(OCc4ccc(Cl)cc4F)n3)CC23CC3)nc2ccc(C(=O)O)cc21 [Compound 349B, 2-[(7-{6-[(4-chloro-2-fluorobenzyl)oxy]pyridin-2-yl}-4,7-diazaspiro[2.5]oct-4-yl)methyl]-1-(2-methoxyethyl)-1H-benzimidazole-6-carboxylic acid]	5.92	58%
COCCn1c(CN2CCN(c3cccc(OCc4ccc(Cl)cc4F)n3)C(C)(C)C2)nc2ccc(C(=O)O)cc21 [Compound 182B, 2-[(4-{6-[(4-chloro-2-fluorobenzyl)oxy]pyridin-2-yl}-3,3-dimethylpiperazin-1-yl)methyl]-1-(2-methoxyethyl)-1H-benzimidazole-6-carboxylic acid]	5.74	93%

Stronger by pEC50, values ahead:

pEC50	Emax	Structure (SMILES)
6.06	–	COCCn1c(CN2CCN(c3ccc(F)c(OCc4ccc(Cl)cc4F)n3)CC2C)nc2ccc(C(=O)O)cc21 (stereo in doubt) [Compound 174B, 2-{[(2S)-4-{6-[(4-chloro-2-fluorobenzyl)oxy]-5-fluoropyridin-2-yl}-2-methylpiperazin-1-yl]methyl}-1-(2-methoxyethyl)-1H-benzimidazole-6-carboxylic acid]
6.89	72%	Cn1c(CN2CCC(c3cccc(OCc4ccc(C(F)(F)F)cc4F)n3)CC2)nc2ccc(C(=O)O)cc21 [Compound 222B, 2-{[4-(6-{[2-fluoro-4-(trifluoromethyl)benzyl]oxy}pyridin-2-yl)piperidin-1-yl]methyl}-1-methyl-1H-benzimidazole-6-carboxylic acid]
6.42	68%	O=C(O)c1ccc2nc(CN3CCC(c4cccc(OCc5ccc(Cl)cc5F)n4)CC3)n(Cc3cnc[nH]3)c2c1 [Compound 312B, 2-[(4-{6-[(4-chloro-2-fluorobenzyl)oxy]pyridin-2-yl}piperidin-1-yl)methyl]-1-(1H-imidazol-5-ylmethyl)-1H-benzimidazole-6-carboxylic acid]
6.68	79%	C[C@H]1CN(c2cccc(OCc3ccc(Cl)cc3F)n2)CCN1Cc1nc2ccc(C(=O)O)cc2n1Cc1cnco1 [Compound 147B, 2-{[(2S)-4-{6-[(4-chloro-2-fluorobenzyl)oxy]pyridin-2-yl}-2-methylpiperazin-1-yl]methyl}-1-(1,3-oxazol-5-ylmethyl)-1H-benzimidazole-6-carboxylic acid]
6.72	71%	O=C(O)c1cnc2nc(CN3CCC(c4cccc(OCc5ccc(Cl)cc5F)n4)CC3)n(CC(F)(F)F)c2c1 [Compound 212B, 2-[(4-{6-[(4-chloro-2-fluorobenzyl)oxy]pyridin-2-yl}piperidin-1-yl)methyl]-1-(2,2,2-trifluoroethyl)-1H-imidazo[4,5-b]pyridine-6-carboxylic acid]
